Laboratory results taken from patent US8466311B2, “Neuroprotective compositions and methods” (Sanford-Burnham Medical Research Institute, priority 2006, dated 2013).

Tests used:
HO-1 protein [1] = assay: Induction of HO-1 protein in HT22 cells (Western blot); type: cell-based; details: 24 h, at NEPP concentration that prevented neuronal cell death
Protocol: HT22 cells (Satoh et al., Eur. J. Neurosci. 17:2249-2255, 2003; Satoh et al., J. Neurochem. 77:50-62, 2001; Sagara et al., J. Biol. Chem. 277:36204-36215, 2002) and primary cortical neurons (Bonfoco et al., Proc. Natl. Acad. Sci. USA 92:7162-7166, 1995) were cultured as described.
These assays were performed as described (Gu et al., Science 297:1186-1190, 2002) by using the following antibodies: anti-HO-1 (SPA895, 1:1000, Santa Cruz Biotechnology), anti-Keap1 (1:100, Santa Cruz Biotechnology), or anti-actin (1:5,000, Oncogene Research Products, San Diego).
Thereafter, cell lysates (10 μg per lane) were subjected to SDS-PAGE and probed with anti-HO-1 or anti-β-actin.

NF-κB binding site = assay: Enhancer element luciferase reporter p3xNF-κBluc; type: cell-based; details: NEPP11 2 μM
Protocol: (§1) Because the E1 and E2 regions also contain other enhancer elements, we tested the effects of NEPP11 (2 μM) on the expression of luciferase activity derived from these elements, including the cAMP-responsive element (CRE; p3xCREluc), AP-1 binding site (p3xAP1luc), NF-κB binding site (p3xNF-κBluc), NFAT-binding site (p3xNFATluc), ETS-binding site (p3xETSluc), and MEF2-binding site (p3xMEF2luc).

MEF2-binding site = assay: Enhancer element luciferase reporter p3xMEF2luc; type: cell-based; details: NEPP11 2 μM
Protocol: as §1

[2] = tested on: thioredoxin and glutaredoxin; assay: Expression of Trx and Grx genes in cortical cultures (RT-PCR); type: cell-based, rat; design: expression of the Trx and Grx genes: dose or concentration left out as unconfirmed
Protocol: One caveat to the mechanism of NEPP and other electrophilic compounds acting at the level of Keap1 to induce HO-1 transcription is that NEPP could potentially react indiscriminately with other thiol-containing compounds in cells. To approach this question, we assessed cellular glutathione (GSH) levels to determine whether NEPP11 would affect this abundant antioxidant thiol. Nepp11 or N-ethylmaleimide (NEM) was added at t=0 and levels of total GSH were measured at the indicated times. GSH content of control cortical cultures (set arbitrarily at 100%) was 46.8±4.5 nmol/mg protein. […] In fact, this scenario seems likely, because the Keap1/Nrf2 pathway regulates the expression of γ-GCL in addition to HO-1 (Itoh et al., Mol. Cell. Biol. 24:36-45, 2004). Besides GSH, cells have another major reduction pathway representing the thioredoxin-glutaredoxin system.
Lack of Effect of NEPP Compounds on Expression of Trx and Grx Genes. […]

HO-1 protein [3] = assay: HO-1 induction in mouse brain after i.p. injection; type: in vivo; details: NEPP11 i.p. 12 h before killing
Protocol: To test the hypothesis that NEPP protection against brain ischemia is associated with HO-1 expression, we examined HO-1 induction by Western blotting and immunostaining. NEPP11 or vehicle was injected intraperitoneally (i.p.) 12 h before the animals were killed. Brain lysates (10 μg per lane) were extracted and subjected to Western blotting with anti-HO-1 and anti-β-actin antibody. For immunostaining, coronal sections of mouse brain were stained with anti-MAP-2 and anti-HO-1 antibodies.

COC(=O)CCCCC/C=C1/C(=O)C=C[C@H]1CCCCCCc1ccc(C)cc1 [NEPP11]
HO-1 protein levels over baseline (HO-1 protein [1]): approximately five-fold
p3xNF-κBluc expression (NF-κB binding site): minimally activated
activity of p3xMEF2luc (MEF2-binding site): no effect
expression of thioredoxin or glutaredoxin ([2]; NEPP11 1 μM): did not significantly affect
expression of the Trx and Grx genes ([2]; NEPP11, 24 hr, RT-PCR): did not significantly affect
level of HO-1 protein in the brain (HO-1 protein [3]): increased
